In patent US8785429B2, “Dihydropyrrolonaphthyridinone compounds as inhibitors of JAK” (Takeda Pharmaceutical Company Limited, priority 2009, dated 2014):

Tests used:
JAK2 = biological target: T1, JAK2 (Homo sapiens, UniProt O60674); assay: Assay for JAK2 Inhibition (phosphorylation of FAM-labeled substrate, Caliper LC-3000); assay type: biochemical; details: −log10(IC50), IC50 is the molar concentration at 50% inhibition; read-out: JAK2 pIC50 (converted)
T1 construct: purchased Invitrogen
Protocol: (§1) A compound's ability to inhibit JAK activity may be assessed using a variety of methods, including in vitro and in vivo assays. The following in vitro assays measure a test compound's ability to inhibit JAK2- and JAK3-mediated phosphorylation of FAM-labeled JAK-specific substrates.
(§2) Purified JAK2 and JAK3 proteins were purchased from Invitrogen. JAK2 and JAK3 inhibition is determined using a black 384-well-plate format in buffer containing 50 mM HEPES, 10 mM NaCl, 10 mM MgCl2, 0.2 mM EDTA, 0.01% EDA (Brij® 35), 1 mM DTT, 0.1 mg/mL BSA at pH 7.3. Each test compound is prepared in DMSO using 2-fold serial dilutions for 11 data points and is added to the buffer so that each dilution contains 3% DMSO.
(§3) To each well is added 2 μL of 3 μM 5FAM-KKKKEEIYFFFG-NH2 and 45 μM ATP (in buffer), 2 μL of diluted test compound (3% DMSO in medium), and 2 μL of 0.6 nM JAK2 in buffer. The reaction mixture is incubated at room temperature for 60 min and is quenched by adding 50 mM HEPeX, 30 mM EDTA, and 0.1% Tx-100 (pH 7.3). To quantify the fluorescent-labeled substrate and product following reaction, the test plate is loaded on a Caliper LC-3000, which measures percent of conversion by microfluidic-based separation.
(§4) Corresponding IC50 values are calculated by non-linear curve fitting of the compound concentrations and percent of inhibition to the standard IC50 equation.

JAK3 = biological target: T2, JAK3 (Homo sapiens, UniProt P52333); assay: Assay for JAK3 Inhibition (phosphorylation of FAM-labeled substrate, Caliper LC-3000); assay type: biochemical; details: −log10(IC50), IC50 is the molar concentration at 50% inhibition; read-out: JAK3 pIC50 (converted)
T2 construct: purchased Invitrogen
T2 sequence (P52333 1-1124): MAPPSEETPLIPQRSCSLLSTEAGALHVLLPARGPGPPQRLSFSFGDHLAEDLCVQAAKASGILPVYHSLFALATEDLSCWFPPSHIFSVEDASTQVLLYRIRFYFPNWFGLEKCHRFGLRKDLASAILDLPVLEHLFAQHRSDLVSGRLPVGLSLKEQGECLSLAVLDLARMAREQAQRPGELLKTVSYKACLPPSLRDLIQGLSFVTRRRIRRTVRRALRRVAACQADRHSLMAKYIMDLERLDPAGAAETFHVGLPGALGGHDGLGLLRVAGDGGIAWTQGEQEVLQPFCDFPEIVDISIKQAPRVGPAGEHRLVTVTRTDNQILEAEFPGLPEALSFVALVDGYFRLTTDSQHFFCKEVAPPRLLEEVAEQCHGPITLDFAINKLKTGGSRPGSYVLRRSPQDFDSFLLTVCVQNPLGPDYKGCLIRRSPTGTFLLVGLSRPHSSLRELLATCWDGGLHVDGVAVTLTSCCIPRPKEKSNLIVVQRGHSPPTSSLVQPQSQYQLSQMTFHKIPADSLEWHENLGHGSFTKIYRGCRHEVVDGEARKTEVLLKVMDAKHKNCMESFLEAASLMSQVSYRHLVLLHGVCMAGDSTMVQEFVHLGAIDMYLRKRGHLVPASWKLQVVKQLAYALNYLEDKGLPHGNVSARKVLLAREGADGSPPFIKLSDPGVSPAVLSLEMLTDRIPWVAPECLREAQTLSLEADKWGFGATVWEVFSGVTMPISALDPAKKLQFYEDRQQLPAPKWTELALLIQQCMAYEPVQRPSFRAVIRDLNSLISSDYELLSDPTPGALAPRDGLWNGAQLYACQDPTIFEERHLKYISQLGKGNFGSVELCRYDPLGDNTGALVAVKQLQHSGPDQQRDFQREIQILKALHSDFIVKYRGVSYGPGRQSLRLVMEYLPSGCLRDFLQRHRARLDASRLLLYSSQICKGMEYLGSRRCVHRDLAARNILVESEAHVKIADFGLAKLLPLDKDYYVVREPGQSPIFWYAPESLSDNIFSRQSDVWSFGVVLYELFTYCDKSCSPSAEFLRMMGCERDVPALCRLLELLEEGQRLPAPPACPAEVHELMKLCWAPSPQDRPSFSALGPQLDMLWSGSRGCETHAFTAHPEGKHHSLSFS
Protocol: as §1, §2
as §3, with “15” for “45”, “1.2” for “0.6”, “JAK3” for “JAK2”, “HEPES,” for “HEPeX,”
as §4

T1 sequence (O60674 whole entry): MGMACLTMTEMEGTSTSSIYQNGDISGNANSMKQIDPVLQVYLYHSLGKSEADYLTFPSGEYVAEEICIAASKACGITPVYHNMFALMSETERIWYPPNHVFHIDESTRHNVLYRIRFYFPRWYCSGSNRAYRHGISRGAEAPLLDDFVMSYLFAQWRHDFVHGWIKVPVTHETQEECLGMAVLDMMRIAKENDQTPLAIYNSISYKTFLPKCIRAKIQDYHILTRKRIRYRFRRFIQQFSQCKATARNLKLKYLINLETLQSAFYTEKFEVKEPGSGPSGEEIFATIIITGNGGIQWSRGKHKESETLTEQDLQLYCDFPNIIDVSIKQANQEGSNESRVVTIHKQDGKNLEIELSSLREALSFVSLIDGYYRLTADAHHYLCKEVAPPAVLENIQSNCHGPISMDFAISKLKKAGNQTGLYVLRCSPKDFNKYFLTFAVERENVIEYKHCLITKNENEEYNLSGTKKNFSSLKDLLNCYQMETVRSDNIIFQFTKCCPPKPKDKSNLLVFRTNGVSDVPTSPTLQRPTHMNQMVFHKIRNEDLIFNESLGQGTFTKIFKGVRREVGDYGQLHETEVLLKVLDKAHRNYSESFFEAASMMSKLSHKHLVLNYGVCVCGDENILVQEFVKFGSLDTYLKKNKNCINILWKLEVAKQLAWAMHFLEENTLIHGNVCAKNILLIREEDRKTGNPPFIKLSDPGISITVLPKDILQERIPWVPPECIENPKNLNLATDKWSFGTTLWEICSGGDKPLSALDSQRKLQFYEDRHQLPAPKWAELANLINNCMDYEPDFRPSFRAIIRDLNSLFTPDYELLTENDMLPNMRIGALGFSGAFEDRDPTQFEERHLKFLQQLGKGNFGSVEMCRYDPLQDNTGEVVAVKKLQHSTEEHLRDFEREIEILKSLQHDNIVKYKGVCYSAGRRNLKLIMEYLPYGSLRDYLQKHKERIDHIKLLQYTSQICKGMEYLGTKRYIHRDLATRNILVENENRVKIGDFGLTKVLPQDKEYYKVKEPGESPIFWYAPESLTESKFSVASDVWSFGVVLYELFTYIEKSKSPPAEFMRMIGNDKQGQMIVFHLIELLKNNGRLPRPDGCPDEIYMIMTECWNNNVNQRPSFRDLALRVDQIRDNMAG

Structure (SMILES)	IC50 (JAK2)	IC50 (JAK3)
CC(C)[C@H](C(=O)N1CCC(C#N)C1)N1Cc2c(Cl)cnc3[nH]cc(c23)C1=O (stereo partly drawn) [Example 33, 1-((R)-2-(6-chloro-3-oxopyrrolo[4,3,2-de][2,6]naphthyridin-4(1H,3H,5H)-yl)-3-methylbutanoyl)pyrrolidine-3-carbonitrile]	794 nM	39.8 nM
CC(C)(O)[C@H](C(=O)NC1CCCC1)N1Cc2ccnc3[nH]cc(c23)C1=O [Example 29, (R)—N-cyclopentyl-3-hydroxy-3-methyl-2-(3-oxopyrrolo[4,3,2-de][2,6]naphthyridin-4(1H,3H,5H)-yl)butanamide]	3160 nM	158 nM
CC[C@@H](C(=O)N1CCCC1)N1Cc2ccnc3[nH]cc(c23)C1=O [Example 18, (S)-4-(1-oxo-1-(pyrrolidin-1-yl)butan-2-yl)-4,5-dihydropyrrolo[4,3,2-de][2,6]naphthyridin-3(1H)-one]	20000 nM	20000 nM
O=C(NC1CCCC1)[C@@H](C1CC1)N1Cc2ccnc3[nH]cc(c23)C1=O [Example 25, (R)—N-cyclopentyl-2-cyclopropyl-2-(3-oxopyrrolo[4,3,2-de][2,6]naphthyridin-4(1H,3H,5H)-yl)acetamide]	1580 nM	200 nM
CC(C)[C@H](C(=O)NC1CCCC1)N1Cc2ccnc3[nH]cc(c23)C1=O [Example 22, (R)—N-cyclopentyl-3-methyl-2-(3-oxopyrrolo[4,3,2-de][2,6]naphthyridin-4(1H,3H,5H)-yl)butanamide]	631 nM	31.6 nM
CCC1(N2Cc3c[nH]c4nccc(c34)C2=O)CCN(C(=O)CC#N)CC1 [Example 9, 3-(4-ethyl-4-(5-oxopyrrolo[4,3,2-de][2,6]naphthyridin-4(1H,3H,5H)-yl)piperidin-1-yl)-3-oxopropanenitrile]	20 nM	10 nM
CC[C@@H](C)[C@H](C(=O)NC1CCCC1)N1Cc2ccnc3[nH]cc(c23)C1=O [Example 23, (2R,3R)—N-cyclopentyl-3-methyl-2-(3-oxopyrrolo[4,3,2-de][2,6]naphthyridin-4(1H,3H,5H)-yl)pentanamide]	3980 nM	398 nM
N#CC[C@H](C(=O)NC1CCCC1)N1Cc2c(Cl)cnc3[nH]cc(c23)C1=O [Example 30, (R)-2-(6-chloro-3-oxopyrrolo[4,3,2-de][2,6]naphthyridin-4(1H,3H,5H)-yl)-3-cyano-N-cyclopentylpropanamide]	3160 nM	1260 nM
CC(C)[C@H](C(=O)NCC#N)N1Cc2c(Cl)cnc3[nH]cc(c23)C1=O [Example 32, (R)-2-(6-chloro-3-oxopyrrolo[4,3,2-de][2,6]naphthyridin-4(1H,3H,5H)-yl)-N-(cyanomethyl)-3-methylbutanamide]	200 nM	10 nM

Continued, values first:

IC50 (JAK2)	IC50 (JAK3)	Structure (SMILES)
251 nM	12.6 nM	CC(C)(C)[C@H](C(=O)NCC#N)N1Cc2ccnc3[nH]cc(c23)C1=O [Example 83, (R)—N-(cyanomethyl)-3,3-dimethyl-2-(3-oxopyrrolo[4,3,2-de][2,6]naphthyridin-4(1H,3H,5H)-yl)butanamide]
3160 nM	200 nM	CC(C)[C@H](C(=O)N1CCC[C@H]1C#N)N1Cc2c(Cl)cnc3[nH]cc(c23)C1=O [Example 84, (S)-1-((R)-2-(6-chloro-3-oxopyrrolo[4,3,2-de][2,6]naphthyridin-4(1H,3H,5H)-yl)-3-methylbutanoyl)pyrrolidine-2-carbonitrile]
10000 nM	631 nM	CC[C@H](C(=O)N1CCC(O)C1)N1Cc2ccnc3[nH]cc(c23)C1=O (stereo partly drawn) [Example 56, 4-((2R)-1-(3-hydroxypyrrolidin-1-yl)-1-oxobutan-2-yl)-4,5-dihydropyrrolo[4,3,2-de][2,6]naphthyridin-3(1 H)-one]
251 nM	12.6 nM	CC(C)[C@H](C(=O)N1CC(C)(C#N)C1)N1Cc2ccnc3[nH]cc(c23)C1=O [Example 53, (R)-3-methyl-1-(3-methyl-2-(3-oxopyrrolo[4,3,2-de][2,6]naphthyridin-4(1H,3H,5H)-yl)butanoyl)azetidine-3-carbonitrile]
6310 nM	631 nM	CC[C@H](C(=O)N1CCN(S(C)(=O)=O)CC1)N1Cc2ccnc3[nH]cc(c23)C1=O [Example 63, (R)-4-(1-(4-(methylsulfonyl)piperazin-1-yl)-1-oxobutan-2-yl)-4,5-dihydropyrrolo[4,3,2-de][2,6]naphthyridin-3(1 H)-one]
1580 nM	251 nM	CC(C)[C@H](C(=O)NCCS(C)(=O)=O)N1Cc2c(F)cnc3[nH]cc(c23)C1=O [Example 46, (R)-2-(6-fluoro-3-oxopyrrolo[4,3,2-de][2,6]naphthyridin-4(1H,3H,5H)-yl)-3-methyl-N-(2-(methylsulfonyl)ethyl)butanamide]
3160 nM	158 nM	CC[C@H](C(=O)NC1CCN(S(C)(=O)=O)CC1)N1Cc2ccnc3[nH]cc(c23)C1=O [Example 73, (R)—N-(1-(methylsulfonyl)piperidin-4-yl)-2-(3-oxopyrrolo[4,3,2-de][2,6]naphthyridin-4(1H,3H,5H)-yl)butanamide]
12600 nM	1000 nM	CC[C@H](C(=O)N1CCN(C)CC1)N1Cc2ccnc3[nH]cc(c23)C1=O [Example 55, (R)-4-(1-(4-methylpiperazin-1-yl)-1-oxobutan-2-yl)-4,5-dihydropyrrolo[4,3,2-de][2,6]naphthyridin-3(1 H)-one]
398 nM	15.8 nM	CC(C)[C@H](C(=O)N1CC(C(F)F)C1)N1Cc2c(F)cnc3[nH]cc(c23)C1=O [Example 80, (R)-4-(1-(3-(difluoromethyl)azetidin-1-yl)-3-methyl-1-oxobutan-2-yl)-6-fluoro-4,5-dihydropyrrolo[4,3,2-de][2,6]naphthyridin-3(1H)-one]
398 nM	25.1 nM	CC(C)[C@H](C(=O)N1C[C@@H](F)C[C@H]1C#N)N1Cc2c(Cl)cnc3[nH]cc(c23)C1=O [Example 86, (2S,4S)-1-((R)-2-(6-chloro-3-oxopyrrolo[4,3,2-de][2,6]naphthyridin-4(1H,3H,5H)-yl)-3-methylbutanoyl)-4-fluoropyrrolidine-2-carbonitrile]
5010 nM	794 nM	CC[C@H](C(=O)NC[C@H](O)CO)N1Cc2ccnc3[nH]cc(c23)C1=O [Example 71, (R)—N—((S)-2,3-dihydroxypropyl)-2-(3-oxopyrrolo[4,3,2-de][2,6]naphthyridin-4(1H,3H,5H)-yl)butanamide]
7940 nM	794 nM	CC[C@H](C(=O)NCC1CCCO1)N1Cc2ccnc3[nH]cc(c23)C1=O (stereo partly drawn) [Example 74, (2R)-2-(3-oxopyrrolo[4,3,2-de][2,6]naphthyridin-4(1H,3H,5H)-yl)-N-((tetrahydrofuran-2-yl)methyl)butanamide]
